In test [1] the target is T1, isolated catalytic core domain (CCD) of IN (Human immunodeficiency virus type 1 group M subtype B, UniProt P12497).
T1 construct: the isolated catalytic core domain (CCD) (51–212); made in house; host or cells: E. coli RosettaII
Put plainly: Disintegration reaction, isolated catalytic core domain. In kind it is biochemical, HIV-1. To be noted: branched substrate. The source says:
Conventional IN strand transfer inhibitors bind at the interface created by the protein, viral DNA, and two magnesium cations in the catalytic site of the enzyme. Because stilbene disulfonic acid derivatives inhibit both 3′-P and ST with a similar efficiency, they may act outside the IN catalytic site. To determine if IN domains other than the catalytic core domain (CCD) are involved in the inhibitory activity of NSC34931, we tested this compound on disintegration, the only IN-mediated reaction that can be catalyzed by the isolated CCD. Disintegration is equivalent to a reverse-ST reaction (Figure 3A). Using a branched substrate, the WT enzyme as well as the isolated CCD catalyzed disintegration with similar efficiency (Figure 3B). NSC34931 inhibited disintegration catalyzed by the full-length IN at concentrations above 4.1 µM (Figure 3B,C). However, NSC34931 was unable to inhibit disintegration catalyzed by the CCD at concentrations up to 37 µM (Figure 3B,C). These experiments indicate that the N-terminal domain (NTD) and/or the C-terminal domain (CTD) are essential for IN inhibition by NSC34931.
Figure 3 Inhibition of the disintegration reaction by NSC34931. (A) Schematic representation of the disintegration reaction. […]

The target in a further test is T2, HIV-1 IN (Human immunodeficiency virus type 1 group M subtype B, UniProt P12497).
T2 construct: 250 nM of recombinant HIV-1 integrase; made in house; host or cells: E. coli RosettaII
Put plainly: Synergy test with the active site inhibitor MK-2048. Type of test: biochemical. To be noted: subinhibitory dose of stilbene disulfonic acid derivative; IC50 of MK-2048 not affected; data not shown.

A further test deals with T3, HIV-1 integrase (Human immunodeficiency virus type 1 group M subtype B, UniProt P12497).
T3 construct: 250 nM of recombinant HIV-1 integrase; made in house; host or cells: E. coli RosettaII
Put plainly: Electrochemiluminescent integrase strand transfer assay (BioVeris), high-throughput screen. Type of test: biochemical. Conditions: single dose 10 µM; read-out: inhibition of IN ST activity. How it is done:
To enable a high-throughput screening, we used the ST assay developed by BioVeris. This proprietary plate-based assay measured stand transfer using electrochemiluminescent technology. First, we validated the assay using HIV-1 IN in the presence of DMSO, or increasing concentrations of a known inhibitor, MA-DKA (also known as 118-D-24, Figure 1A). […] Next, we used MA-DKA as a control in every test plate and screened a large library of molecules. Overall, 3095 compounds were tested as part of the NCI Developmental Therapeutics Program’s small molecule plated sets from the Open Chemical Repository Collection. […] A single dose testing (10 µM) enabled the identification of 130 molecules that inhibited ST by over 50% (light dashed line, Figure 1A). […] NSC153308 is a 2-phenacylsulfanylacetic acid that resembles the diketo acid chemotype. On the other side, NSC119889 is a xanthene derivative similar to V-165 [6]. […] However, the purpose of this study was to identify a new chemotype that might act on IN via a novel mechanism, distinct from known active site inhibitors. Accordingly, we retrieved the chemical structure of the 130 hits and looked for a chemical pattern different from that of conventional strand transfer inhibitors.
This electrochemiluminescent plate-based assay was performed using a BioVeris M-SERIES Analyzer (Gaithersburg, MD, USA). DNA substrates were obtained from BioVeris and used according to the manufacturer’s recommendations. Briefly, a biotinylated donor DNA was incubated for 30 min at 37 °C in the presence of 250 nM of recombinant HIV-1 integrase. Complexes were bound to paramagnetic streptavidin-coated beads (M-280 Dynabeads). After addition of the drug, the integration reaction was initiated by addition of a ruthenium-labeled target DNA. The reaction was carried out for 60 min at 37 °C, before reading on the BioVeris M-SERIES Analyzer.

The target of test [2] is T4, isolated catalytic core domain (CCD) (51–212) (Human immunodeficiency virus type 1 group M subtype B, UniProt P12497).
T4 construct: the isolated catalytic core domain (CCD) (51–212); made in house; host or cells: E. coli RosettaII
Put plainly: Schiff base IN-DNA crosslinking assay, isolated CCD. Type of test: binding, HIV-1. The source says: To gain further evidence that NSC34931 interferes with DNA binding, and to determine the role of outer domains in this inhibition, we evaluated the ability of NSC34931 to inhibit the formation of IN-DNA crosslinks using our previously described Schiff base assay. Briefly, a deoxyuracyl nucleotide is incorporated in the DNA substrate to generate an abasic site via uracyl DNA glycosylase. IN forms a covalent complex (Schiff base), which can be stabilized by reduction with sodium borohydride (Figure 5A). Full-length IN, but also the isolated CCD or CTD domains, can crosslink DNA ([…]). Consistent with anisotropy data, NSC34931 suppresses the formation of IN-DNA crosslinks in the context of the full-length IN (Figure 5B, upper gel). Of note, the effective dose to inhibit this reaction is similar to that needed to inhibit 3′-P or ST (about 0.45 µM). In contrast, the IN CCD requires a 10 times higher concentration of compound to prevent DNA crosslinking, confirming that the NTD or the CTD are important for NSC34931 inhibition. Lastly, the same experiment was conducted with the isolated CTD (Figure 5B, lower gel).
Figure 5 Inhibition of IN-DNA binding by NSC34931. (A) Principle of the Schiff base crosslinking assay. An abasic site was introduced by uracil DNA glycosylase in the DNA substrate at the -12 position. […]

The results in this text go back to article PMC6832134, “Discovery of Novel Integrase Inhibitors Acting outside the Active Site Through High-Throughput Screening” (Molecules, 2019).

The term inhibition denotes the share of the control response that was lost under treatment.

Regarding `O=S(=O)(O)c1cc(/N=N/c2cc(S(=O)(=O)O)c3ccccc3c2O)ccc1/C=C/c1ccc(/N=N/c2cc(S(=O)(=O)O)c3ccccc3c2O)cc1S(=O)(=O)O` [NSC34931], in test [1], the “concentration up to which disintegration is not inhibited” value is listed as > 37 µM. In addition, the “synergy with active site inhibitor MK-2048” value at HIV-1 IN was “could not see any cooperative effect”. Besides, at HIV-1 integrase, the inhibition at 10 µM came out at 77.8%. Besides, the “fold higher concentration required to prevent DNA crosslinking vs full-length IN” value in test [2] came out at 10.
